Measurements as given in ChEMBL document CHEMBL1159093, “Discovery and optimization of RO-85, a novel drug-like, potent, and selective P2X3 receptor antagonist” (Bioorg Med Chem Lett, 2010).

Tests used:
[1] = biological target: Vasoactive intestinal polypeptide receptor 1 (Homo sapiens) (UniProt P32241); assay: Displacement of [125I]VIP from human recombinant VPAC1 receptor expressed in CHO cells at 10 uM after 60 mins by scintillation counting; format: cell-based
Rattus norvegicus [2] = organism: Rattus norvegicus; assay: Displacement of [35S]dATPaS from P2Y receptor in rat cerebral cortex at 10 uM after 60 mins by scintillation counting; format: tissue-based
[3] = Metabolic stability in rat liver microsomes; format: ADME, Microsome; details: read-out: Stability
P2X purinoceptor 3 = biological target: T1, P2X purinoceptor 3 (Rattus norvegicus, UniProt P49654); assay: Antagonist activity at rat P2X3 receptor expressed in CHO cells; format: functional, cell-based
T1 sequence (P49654 whole entry): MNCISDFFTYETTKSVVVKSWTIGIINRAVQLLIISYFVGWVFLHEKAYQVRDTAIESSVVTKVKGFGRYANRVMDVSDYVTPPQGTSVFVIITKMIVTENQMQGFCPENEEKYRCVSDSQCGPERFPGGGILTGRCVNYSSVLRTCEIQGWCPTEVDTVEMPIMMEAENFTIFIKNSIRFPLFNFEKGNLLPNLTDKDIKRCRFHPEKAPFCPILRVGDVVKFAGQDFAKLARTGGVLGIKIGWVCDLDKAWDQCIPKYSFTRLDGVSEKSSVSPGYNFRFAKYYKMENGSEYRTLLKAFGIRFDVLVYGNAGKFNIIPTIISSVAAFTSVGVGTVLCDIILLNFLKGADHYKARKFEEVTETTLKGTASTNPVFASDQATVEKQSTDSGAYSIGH

[4] = biological target: Type-1 angiotensin II receptor (Homo sapiens) (UniProt P30556); assay: Displacement of [125I][Sar1,Ile8]-AT-2 from human recombinant AT1 receptor expressed in HEK293 cells at 10 uM after 120 mins by scintillation counting; format: cell-based
[5] = biological target: Muscarinic acetylcholine receptor M4 (Homo sapiens) (UniProt P08173); assay: Displacement of [3H]4-DAMP from human recombinant muscarinic M4 receptor expressed in CHO cells at 10 uM after 60 mins by scintillation counting; format: cell-based
Muscarinic acetylcholine receptor M4 (Homo sapiens), sequence (P08173 whole entry): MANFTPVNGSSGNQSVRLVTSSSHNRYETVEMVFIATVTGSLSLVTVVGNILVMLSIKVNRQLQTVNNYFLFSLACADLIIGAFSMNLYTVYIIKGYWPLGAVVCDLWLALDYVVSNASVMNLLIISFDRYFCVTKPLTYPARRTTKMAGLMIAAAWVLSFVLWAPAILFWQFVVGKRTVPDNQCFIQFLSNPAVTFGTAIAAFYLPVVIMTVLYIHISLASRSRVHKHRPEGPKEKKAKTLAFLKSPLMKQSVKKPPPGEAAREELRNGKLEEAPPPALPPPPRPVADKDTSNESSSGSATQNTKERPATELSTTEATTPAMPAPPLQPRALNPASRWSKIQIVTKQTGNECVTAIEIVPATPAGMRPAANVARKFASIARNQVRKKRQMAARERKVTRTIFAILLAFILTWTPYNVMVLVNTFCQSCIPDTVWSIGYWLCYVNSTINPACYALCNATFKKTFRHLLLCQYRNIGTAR

[6] = biological target: Adrenergic receptor alpha-1 (Rattus norvegicus) (UniProt P15823+P23944+P43140); assay: Displacement of [3H]prazosin from alpha1 receptor in rat cerebral cortex at 10 uM after 60 mins by scintillation counting; format: tissue-based
[7] = biological target: Calcitonin gene-related peptide type 1 receptor (Homo sapiens) (UniProt Q16602); assay: Displacement of [125I]hCGRPa from human recombinant CGRP receptor expressed in CHO cells at 10 uM after 90 mins by scintillation counting; format: cell-based
Calcitonin gene-related peptide type 1 receptor (Homo sapiens), sequence (Q16602 whole entry): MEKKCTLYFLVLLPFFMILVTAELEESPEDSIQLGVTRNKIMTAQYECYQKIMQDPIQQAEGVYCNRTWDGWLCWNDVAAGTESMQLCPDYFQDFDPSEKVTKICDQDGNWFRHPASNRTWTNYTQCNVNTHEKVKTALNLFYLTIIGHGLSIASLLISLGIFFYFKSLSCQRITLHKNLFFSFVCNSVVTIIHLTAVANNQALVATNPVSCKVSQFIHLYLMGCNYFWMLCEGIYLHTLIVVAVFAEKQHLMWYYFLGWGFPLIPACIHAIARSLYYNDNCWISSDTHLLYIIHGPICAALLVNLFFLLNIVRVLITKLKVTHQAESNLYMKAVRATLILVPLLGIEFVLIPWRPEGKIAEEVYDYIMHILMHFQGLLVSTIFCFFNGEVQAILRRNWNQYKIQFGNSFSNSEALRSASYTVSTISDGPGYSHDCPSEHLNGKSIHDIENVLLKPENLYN

[8] = biological target: Gastrin/cholecystokinin type B receptor (Homo sapiens) (UniProt P32239); assay: Displacement of [125I]CCK-8s from human recombinant CCK2 receptor expressed in CHO cells at 10 uM after 60 mins by scintillation counting; format: cell-based
[9] = biological target: Muscarinic acetylcholine receptor M2 (Homo sapiens) (UniProt P08172); assay: Displacement of [3H]AF-DX 384 from human recombinant muscarinic M2 receptor expressed in CHO cells at 10 uM after 60 mins by scintillation counting; format: cell-based
Muscarinic acetylcholine receptor M2 (Homo sapiens), sequence (P08172 whole entry): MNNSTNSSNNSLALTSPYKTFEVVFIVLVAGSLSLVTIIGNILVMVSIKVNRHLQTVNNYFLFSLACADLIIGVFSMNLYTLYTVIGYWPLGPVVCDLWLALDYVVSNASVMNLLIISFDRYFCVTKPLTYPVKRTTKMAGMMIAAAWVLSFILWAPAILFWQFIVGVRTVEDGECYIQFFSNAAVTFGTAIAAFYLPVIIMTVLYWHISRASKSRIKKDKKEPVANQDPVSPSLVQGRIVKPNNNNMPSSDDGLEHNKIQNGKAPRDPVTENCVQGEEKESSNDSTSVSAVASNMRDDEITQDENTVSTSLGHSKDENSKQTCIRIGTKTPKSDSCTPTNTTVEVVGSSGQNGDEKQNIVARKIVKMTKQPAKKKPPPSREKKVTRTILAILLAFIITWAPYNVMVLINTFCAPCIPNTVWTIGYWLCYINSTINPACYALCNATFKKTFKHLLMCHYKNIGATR

[10] = Inhibition of Cytochrome P450 at <15 uM; format: ADME
Rattus norvegicus [11] = organism: Rattus norvegicus; assay: Displacement of [35S]TBPS from GABA gated chloride channel in rat cerebral cortex at 10 uM after 120 mins by scintillation counting; format: tissue-based
[12] = biological target: Sodium-dependent serotonin transporter (Homo sapiens) (UniProt P31645); assay: Displacement of [3H]imipramine from human recombinant SERT expressed in CHO cells at 10 uM after 60 mins by scintillation counting; format: cell-based
[13] = biological target: Beta-1 adrenergic receptor (Homo sapiens) (UniProt P08588); assay: Displacement of [3H]RX 821002 from human recombinant beta-1 adrenergic receptor expressed in HEK293 cells at 10 uM after 60 mins by scintillation counting; format: cell-based
[14] = biological target: C-X-C chemokine receptor type 2 (Homo sapiens) (UniProt P25025); assay: Displacement of [125I]IL-8 from human recombinant CXCR2 receptor expressed in HEK293 cells at 10 uM after 60 mins by scintillation counting; format: cell-based
C-X-C chemokine receptor type 2 (Homo sapiens), sequence (P25025 whole entry): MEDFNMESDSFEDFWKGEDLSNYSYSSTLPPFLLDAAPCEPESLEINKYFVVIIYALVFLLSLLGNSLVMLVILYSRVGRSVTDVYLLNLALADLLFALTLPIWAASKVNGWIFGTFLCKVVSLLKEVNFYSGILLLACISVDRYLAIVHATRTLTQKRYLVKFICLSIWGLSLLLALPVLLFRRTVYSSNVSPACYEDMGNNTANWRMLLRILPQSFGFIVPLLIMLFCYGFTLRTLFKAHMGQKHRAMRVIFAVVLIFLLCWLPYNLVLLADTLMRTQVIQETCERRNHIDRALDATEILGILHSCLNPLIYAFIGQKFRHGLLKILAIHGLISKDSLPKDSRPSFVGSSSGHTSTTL

[15] = biological target: D(1B) dopamine receptor (Homo sapiens) (UniProt P21918); assay: Displacement of [3H]SCH 23390 from human recombinant dopamine D5 receptor expressed in rat GH4 cells at 10 uM after 60 mins by scintillation counting; format: cell-based
D(1B) dopamine receptor (Homo sapiens), sequence (P21918 whole entry): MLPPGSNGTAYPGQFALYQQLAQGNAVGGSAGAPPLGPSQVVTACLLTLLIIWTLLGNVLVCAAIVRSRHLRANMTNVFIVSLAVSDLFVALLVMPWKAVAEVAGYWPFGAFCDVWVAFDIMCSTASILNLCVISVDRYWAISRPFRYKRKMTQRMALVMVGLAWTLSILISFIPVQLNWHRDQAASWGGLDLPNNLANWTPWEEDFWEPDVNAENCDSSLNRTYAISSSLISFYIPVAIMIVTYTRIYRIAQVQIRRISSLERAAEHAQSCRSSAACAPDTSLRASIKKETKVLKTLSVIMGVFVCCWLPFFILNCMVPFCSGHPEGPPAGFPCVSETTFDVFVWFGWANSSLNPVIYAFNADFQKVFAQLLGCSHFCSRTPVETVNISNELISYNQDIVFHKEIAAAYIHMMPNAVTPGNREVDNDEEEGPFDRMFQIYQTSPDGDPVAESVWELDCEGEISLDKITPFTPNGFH

[16] = biological target: 5-hydroxytryptamine receptor 5A (Homo sapiens) (UniProt P47898); assay: Displacement of [3H]LSD from human recombinant 5HT5A receptor expressed in HEK293 cells at 10 uM after 120 mins by scintillation counting; format: cell-based
5-hydroxytryptamine receptor 5A (Homo sapiens), sequence (P47898 whole entry): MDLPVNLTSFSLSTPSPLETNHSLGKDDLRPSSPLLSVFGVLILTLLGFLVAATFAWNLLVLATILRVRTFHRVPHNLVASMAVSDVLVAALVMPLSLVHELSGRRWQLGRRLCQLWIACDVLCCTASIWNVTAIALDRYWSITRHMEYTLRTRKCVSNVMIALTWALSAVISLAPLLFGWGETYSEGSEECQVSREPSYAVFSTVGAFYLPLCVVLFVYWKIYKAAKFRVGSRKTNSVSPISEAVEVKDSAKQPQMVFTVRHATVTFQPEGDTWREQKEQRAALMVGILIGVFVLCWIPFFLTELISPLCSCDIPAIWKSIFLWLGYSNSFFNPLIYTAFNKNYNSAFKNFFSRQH

P2X purinoceptor 1 = P2X purinoceptor 1 (Homo sapiens, UniProt P51575); assay: Antagonist activity at P2X1 receptor; format: functional
P2X purinoceptor 1, sequence (P51575 whole entry): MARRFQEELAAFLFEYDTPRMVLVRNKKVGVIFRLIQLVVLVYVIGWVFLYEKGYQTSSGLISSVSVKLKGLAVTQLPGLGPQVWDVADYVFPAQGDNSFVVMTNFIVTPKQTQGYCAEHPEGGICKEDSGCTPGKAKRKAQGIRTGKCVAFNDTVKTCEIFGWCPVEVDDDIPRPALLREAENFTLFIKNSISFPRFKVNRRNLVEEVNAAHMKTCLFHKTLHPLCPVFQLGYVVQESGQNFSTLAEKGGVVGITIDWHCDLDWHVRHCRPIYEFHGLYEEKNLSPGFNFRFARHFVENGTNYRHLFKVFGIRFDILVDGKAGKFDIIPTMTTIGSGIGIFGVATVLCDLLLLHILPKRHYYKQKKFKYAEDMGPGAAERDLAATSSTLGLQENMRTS

[17] = biological target: Adenosine receptor A2a (Homo sapiens) (UniProt P29274); assay: Displacement of [3H]CGS 21680 from human adenosine A2A receptor expressed in HEK293 cells at 10 uM after 120 mins by scintillation counting
Adenosine receptor A2a (Homo sapiens), sequence (P29274 whole entry, looked up): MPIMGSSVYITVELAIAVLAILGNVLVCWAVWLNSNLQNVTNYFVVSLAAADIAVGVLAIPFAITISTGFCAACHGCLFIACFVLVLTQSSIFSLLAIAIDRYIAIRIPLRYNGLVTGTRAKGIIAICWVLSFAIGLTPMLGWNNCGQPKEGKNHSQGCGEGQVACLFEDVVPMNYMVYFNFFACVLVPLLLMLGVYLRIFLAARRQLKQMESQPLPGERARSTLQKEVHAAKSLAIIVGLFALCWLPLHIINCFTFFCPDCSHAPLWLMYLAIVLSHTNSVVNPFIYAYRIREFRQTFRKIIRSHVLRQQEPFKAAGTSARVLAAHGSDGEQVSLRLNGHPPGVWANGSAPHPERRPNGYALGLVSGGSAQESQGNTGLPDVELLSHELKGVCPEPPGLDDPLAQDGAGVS

[18] = biological target: Small conductance calcium-activated potassium channel (Rattus norvegicus) (UniProt P70604+P70606+P70605); assay: Displacement of [125I]apamin from SK […] channel in rat cerebral cortex at 10 uM after 60 mins by scintillation counting; format: tissue-based
[19] = biological target: Melatonin receptor type 1A (Homo sapiens) (UniProt P48039); assay: Displacement of [125I]2-iodomelatonin from human recombinant MT1 receptor expressed in CHO cells at 10 uM after 60 mins by scintillation counting; format: cell-based
Melatonin receptor type 1A (Homo sapiens), sequence (P48039 whole entry): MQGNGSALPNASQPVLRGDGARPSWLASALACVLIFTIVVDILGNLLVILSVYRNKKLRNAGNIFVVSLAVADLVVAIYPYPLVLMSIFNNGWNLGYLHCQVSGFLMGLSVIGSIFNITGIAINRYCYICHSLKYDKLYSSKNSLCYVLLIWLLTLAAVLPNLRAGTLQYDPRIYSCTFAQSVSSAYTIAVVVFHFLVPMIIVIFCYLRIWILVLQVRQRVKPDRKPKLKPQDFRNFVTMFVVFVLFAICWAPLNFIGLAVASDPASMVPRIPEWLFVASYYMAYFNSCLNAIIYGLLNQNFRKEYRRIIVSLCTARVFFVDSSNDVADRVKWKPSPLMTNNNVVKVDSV

[20] = biological target: 5-hydroxytryptamine receptor 6 (Homo sapiens) (UniProt P50406); assay: Displacement of [3H]LSD from human recombinant 5HT6 receptor expressed in CHO cells at 10 uM after 120 mins by scintillation counting; format: cell-based
5-hydroxytryptamine receptor 6 (Homo sapiens), sequence (P50406 whole entry): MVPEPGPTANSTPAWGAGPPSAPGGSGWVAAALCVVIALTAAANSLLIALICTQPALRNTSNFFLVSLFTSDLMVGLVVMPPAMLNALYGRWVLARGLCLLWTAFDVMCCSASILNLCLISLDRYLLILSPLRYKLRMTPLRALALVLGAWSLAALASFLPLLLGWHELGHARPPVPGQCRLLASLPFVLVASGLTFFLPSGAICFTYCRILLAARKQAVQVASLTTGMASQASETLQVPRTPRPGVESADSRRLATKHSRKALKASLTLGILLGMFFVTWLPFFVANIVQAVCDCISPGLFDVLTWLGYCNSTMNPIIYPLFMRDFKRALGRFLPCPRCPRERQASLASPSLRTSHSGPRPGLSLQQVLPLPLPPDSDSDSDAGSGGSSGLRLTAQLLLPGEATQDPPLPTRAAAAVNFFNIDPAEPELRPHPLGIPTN

[21] = biological target: Type-2 angiotensin II receptor (Homo sapiens) (UniProt P50052); assay: Displacement of [125I]CGP 42112A from human recombinant AT2 receptor expressed in HEK293 cells at 10 uM after 4 hrs by scintillation counting; format: cell-based
[22] = biological target: D(1A) dopamine receptor (Homo sapiens) (UniProt P21728); assay: Displacement of [3H]SCH 23390 from human recombinant dopamine D1 receptor expressed in CHO cells at 10 uM after 60 mins by scintillation counting; format: cell-based
D(1A) dopamine receptor (Homo sapiens), sequence (P21728 whole entry): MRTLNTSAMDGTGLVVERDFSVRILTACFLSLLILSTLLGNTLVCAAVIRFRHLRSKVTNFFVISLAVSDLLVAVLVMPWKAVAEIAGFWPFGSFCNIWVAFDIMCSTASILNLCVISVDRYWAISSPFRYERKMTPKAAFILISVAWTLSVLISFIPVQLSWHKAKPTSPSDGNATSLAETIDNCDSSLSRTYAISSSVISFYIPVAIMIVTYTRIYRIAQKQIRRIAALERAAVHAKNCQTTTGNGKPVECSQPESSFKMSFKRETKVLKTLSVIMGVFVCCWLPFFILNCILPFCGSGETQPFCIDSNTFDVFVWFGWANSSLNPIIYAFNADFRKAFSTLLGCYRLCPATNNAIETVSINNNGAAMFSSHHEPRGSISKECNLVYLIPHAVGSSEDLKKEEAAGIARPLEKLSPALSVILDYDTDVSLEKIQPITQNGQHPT

[23] = biological target: Tumor necrosis factor (Homo sapiens) (UniProt P01375); assay: Displacement of [125I]TNF-a from TNFalpha in human U937 cells at 10 uM after 120 mins by scintillation counting; format: cell-based; details: U-937
Tumor necrosis factor (Homo sapiens), sequence (P01375 whole entry): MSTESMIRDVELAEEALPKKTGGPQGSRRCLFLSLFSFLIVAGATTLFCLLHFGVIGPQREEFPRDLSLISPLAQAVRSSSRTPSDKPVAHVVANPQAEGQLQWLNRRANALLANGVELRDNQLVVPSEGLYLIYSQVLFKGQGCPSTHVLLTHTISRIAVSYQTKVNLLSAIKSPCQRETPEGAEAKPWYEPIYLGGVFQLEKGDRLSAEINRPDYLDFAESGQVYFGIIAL

With `CC(=O)N1CCN(C[C@@H](C)NC(=O)c2cc3c(-c4ccccc4)nn(C)c3s2)CC1` the Activity [1] was greater than 50%, the Activity (Rattus norvegicus [2]) was greater than 50% and the microsomal CLint [3] was 43.7 µL/min/mg. The IC50 (P2X purinoceptor 3) was 31.6 nM, the Activity [4] was greater than 50% and the Activity [5] was greater than 50%. It also gave an Activity [6] greater than 50%, an Activity [7] greater than 50% and an Activity [8] greater than 50%. The Activity [9] was greater than 50%, the Activity [10] was “Not Active” and the Activity (Rattus norvegicus [11]) was greater than 50%. For the same compound, the Activity [12] was greater than 50%, the Activity [13] was greater than 50% and the Activity [14] was greater than 50%. It also gave an Activity [15] greater than 50%, an Activity [16] greater than 50% and an IC50 (P2X purinoceptor 1) greater than 10000 nM. It also gave an Activity [17] greater than 50%, an Activity [18] greater than 50% and an Activity [19] greater than 50%. For the same compound, the Activity [20] was greater than 50%, the Activity [21] was greater than 50% and the Activity [22] was greater than 50%. For the same compound, the Activity [23] was greater than 50%.
